Source: publication PMC5693660 (Amino acids, 2017)

Molecular target: T1, deoxyhypusine synthase (DHS) (Homo sapiens, UniProt P49366)
T1 sequence (P49366 1-369): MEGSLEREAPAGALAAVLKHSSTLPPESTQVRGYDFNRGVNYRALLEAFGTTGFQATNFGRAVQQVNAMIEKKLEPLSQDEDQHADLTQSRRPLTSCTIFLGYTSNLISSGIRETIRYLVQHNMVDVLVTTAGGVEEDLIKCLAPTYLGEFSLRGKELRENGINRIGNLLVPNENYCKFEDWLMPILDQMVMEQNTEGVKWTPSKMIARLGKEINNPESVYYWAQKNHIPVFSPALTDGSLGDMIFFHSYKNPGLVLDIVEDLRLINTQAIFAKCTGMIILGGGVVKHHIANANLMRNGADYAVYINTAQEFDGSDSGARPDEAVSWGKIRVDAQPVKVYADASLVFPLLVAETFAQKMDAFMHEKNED
Assay type: biochemical

## N=C(N)NCCCCCCCN [GC7]
  IC50: < 1 µM
